From the NIST ThermoML archive (doi:10.1021/je4008052)
Several values for one entry are separate records, joined by “and”; a condition that tells them apart may be missing. Equal values may be shown once. Numbers after ± are expanded uncertainties.

Settings: Liquid, Gas chromatography

SMILES: CCCCCCCC/C=C/CCCCCCCCCCCCC [(E)-9-tricosene]
- vapor or sublimation pressure (298.15 K): 1.041e-07 kPa and 1.013e-07 kPa
- vapor or sublimation pressure (308.15 K): 4.621e-07 kPa and 4.52e-07 kPa
- vapor or sublimation pressure (318.15 K): 1.828e-06 kPa and 1.795e-06 kPa
- vapor or sublimation pressure (328.15 K): 6.514e-06 kPa and 6.421e-06 kPa
- vapor or sublimation pressure (338.15 K): 2.089e-05 kPa and 2.112e-05 kPa
- vapor or sublimation pressure (358.15 K): 0.0001722 ± 0.0002 kPa and 0.000173 ± 0.0002 kPa
- vapor or sublimation pressure (368.15 K): 0.0004428 ± 0.0002 kPa and 0.0004438 ± 0.0002 kPa
- vapor or sublimation pressure (378.15 K): 0.001067 ± 0.00021 kPa
- vapor or sublimation pressure (388.15 K): 0.002425 ± 0.00026 kPa and 0.002419 ± 0.00026 kPa
- vapor or sublimation pressure (398.15 K): 0.005195 ± 0.00042 kPa and 0.00522 ± 0.00042 kPa
- vapor or sublimation pressure (408.15 K): 0.01062 ± 0.00082 kPa and 0.01069 ± 0.00083 kPa
- vapor or sublimation pressure (418.15 K): 0.02075 ± 0.0016 kPa and 0.02093 ± 0.0016 kPa
- vapor or sublimation pressure (428.15 K): 0.0389 ± 0.003 kPa and 0.0393 ± 0.003 kPa
- vapor or sublimation pressure (438.15 K): 0.07017 ± 0.0054 kPa and 0.07101 ± 0.0055 kPa
- vapor or sublimation pressure (448.15 K): 0.1222 ± 0.0095 kPa and 0.1238 ± 0.0096 kPa
- vapor or sublimation pressure (458.15 K): 0.2059 ± 0.016 kPa and 0.209 ± 0.016 kPa
- vapor or sublimation pressure (468.15 K): 0.3368 ± 0.026 kPa and 0.3423 ± 0.027 kPa
- vapor or sublimation pressure (478.15 K): 0.5356 ± 0.042 kPa and 0.5451 ± 0.042 kPa
- vapor or sublimation pressure (488.15 K): 0.83 ± 0.064 kPa and 0.8458 ± 0.066 kPa
- vapor or sublimation pressure (498.15 K): 1.256 ± 0.097 kPa and 1.281 ± 0.099 kPa
- vapor or sublimation pressure (508.15 K): 1.858 ± 0.14 kPa and 1.898 ± 0.15 kPa
- vapor or sublimation pressure (518.15 K): 2.693 ± 0.21 kPa and 2.753 ± 0.21 kPa
- vapor or sublimation pressure (528.15 K): 3.828 ± 0.3 kPa and 3.918 ± 0.3 kPa
- vapor or sublimation pressure (538.15 K): 5.344 ± 0.41 kPa and 5.475 ± 0.42 kPa
- vapor or sublimation pressure (548.15 K): 7.336 ± 0.57 kPa and 7.523 ± 0.58 kPa
- vapor or sublimation pressure (558.15 K): 9.914 ± 0.77 kPa and 10.18 ± 0.79 kPa
- vapor or sublimation pressure (568.15 K): 13.2 ± 1 kPa and 13.56 ± 1.1 kPa
- vapor or sublimation pressure (578.15 K): 17.34 ± 1.3 kPa and 17.82 ± 1.4 kPa
- vapor or sublimation pressure (588.15 K): 22.48 ± 1.7 kPa and 23.12 ± 1.8 kPa
- vapor or sublimation pressure (598.15 K): 28.79 ± 2.2 kPa and 29.64 ± 2.3 kPa
- vapor or sublimation pressure (608.15 K): 36.46 ± 2.8 kPa and 37.56 ± 2.9 kPa
- vapor or sublimation pressure (618.15 K): 45.67 ± 3.5 kPa and 47.09 ± 3.6 kPa
- vapor or sublimation pressure (628.15 K): 56.64 ± 4.4 kPa and 58.44 ± 4.5 kPa
- vapor or sublimation pressure (638.15 K): 69.59 ± 5.4 kPa and 71.83 ± 5.6 kPa
- vapor or sublimation pressure (648.15 K): 84.72 ± 6.6 kPa and 87.52 ± 6.8 kPa
- vapor or sublimation pressure (655 K): 99.7 ± 7.7 kPa
- vapor or sublimation pressure (656 K): 98.29 ± 7.6 kPa

SMILES: CCCCCCCC/C=C\CCCCCCCCCCCCC [(Z)-tricos-9-ene]
- vapor or sublimation pressure (298.15 K): 1.146e-07 kPa and 1.205e-07 kPa
- vapor or sublimation pressure (308.15 K): 5.055e-07 kPa and 5.324e-07 kPa
- vapor or sublimation pressure (318.15 K): 1.987e-06 kPa and 2.096e-06 kPa
- vapor or sublimation pressure (328.15 K): 7.042e-06 kPa and 7.434e-06 kPa
- vapor or sublimation pressure (358.15 K): 0.0001951 ± 0.0002 kPa and 0.0001844 ± 0.0002 kPa
- vapor or sublimation pressure (368.15 K): 0.0004985 ± 0.0002 kPa and 0.0004708 ± 0.0002 kPa
- vapor or sublimation pressure (378.15 K): 0.001195 ± 0.00022 kPa and 0.001128 ± 0.00021 kPa
- vapor or sublimation pressure (388.15 K): 0.0027 ± 0.00028 kPa and 0.002546 ± 0.00027 kPa
- vapor or sublimation pressure (398.15 K): 0.00545 ± 0.00043 kPa and 0.005782 ± 0.00046 kPa
- vapor or sublimation pressure (408.15 K): 0.01111 ± 0.00086 kPa and 0.01179 ± 0.00091 kPa
- vapor or sublimation pressure (418.15 K): 0.02163 ± 0.0017 kPa and 0.02297 ± 0.0018 kPa
- vapor or sublimation pressure (428.15 K): 0.04041 ± 0.0031 kPa and 0.04294 ± 0.0033 kPa
- vapor or sublimation pressure (438.15 K): 0.07269 ± 0.0056 kPa and 0.07727 ± 0.006 kPa
- vapor or sublimation pressure (448.15 K): 0.1262 ± 0.0098 kPa and 0.1343 ± 0.01 kPa
- vapor or sublimation pressure (458.15 K): 0.2121 ± 0.016 kPa and 0.2258 ± 0.017 kPa
- vapor or sublimation pressure (468.15 K): 0.346 ± 0.027 kPa and 0.3684 ± 0.029 kPa
- vapor or sublimation pressure (478.15 K): 0.5489 ± 0.043 kPa and 0.5848 ± 0.045 kPa
- vapor or sublimation pressure (488.15 K): 0.8487 ± 0.066 kPa and 0.9046 ± 0.07 kPa
- vapor or sublimation pressure (498.15 K): 1.281 ± 0.099 kPa and 1.366 ± 0.11 kPa
- vapor or sublimation pressure (508.15 K): 1.891 ± 0.15 kPa and 2.018 ± 0.16 kPa
- vapor or sublimation pressure (518.15 K): 2.735 ± 0.21 kPa and 2.92 ± 0.23 kPa
- vapor or sublimation pressure (528.15 K): 3.88 ± 0.3 kPa and 4.144 ± 0.32 kPa
- vapor or sublimation pressure (538.15 K): 5.406 ± 0.42 kPa and 5.777 ± 0.45 kPa
- vapor or sublimation pressure (548.15 K): 7.406 ± 0.57 kPa and 7.919 ± 0.61 kPa
- vapor or sublimation pressure (558.15 K): 9.989 ± 0.77 kPa and 10.69 ± 0.83 kPa
- vapor or sublimation pressure (568.15 K): 13.28 ± 1 kPa and 14.21 ± 1.1 kPa
- vapor or sublimation pressure (578.15 K): 17.41 ± 1.4 kPa and 18.64 ± 1.4 kPa
- vapor or sublimation pressure (588.15 K): 22.53 ± 1.8 kPa and 24.14 ± 1.9 kPa
- vapor or sublimation pressure (598.15 K): 28.81 ± 2.2 kPa and 30.88 ± 2.4 kPa
- vapor or sublimation pressure (608.15 K): 36.42 ± 2.8 kPa and 39.06 ± 3 kPa
- vapor or sublimation pressure (618.15 K): 45.55 ± 3.5 kPa and 48.88 ± 3.8 kPa
- vapor or sublimation pressure (628.15 K): 56.41 ± 4.4 kPa and 60.56 ± 4.7 kPa
- vapor or sublimation pressure (638.15 K): 69.19 ± 5.4 kPa and 74.32 ± 5.8 kPa
- vapor or sublimation pressure (648.15 K): 84.12 ± 6.5 kPa and 90.4 ± 7 kPa
- vapor or sublimation pressure (656 K): 104.81 ± 8.1 kPa
- vapor or sublimation pressure (658.15 K): 101.4 ± 7.9 kPa
